According to patent US20240299591A1, “Antimicrobial Peptides and Their Use” (priority 2021, published 2024):
“Also recorded” adds a separate entry of the source. Where a SMILES comes first, the peptide text is derived from it. [ ]: non-standard residue; d: D form. The star is where a group is joined. X1 = CN1/C(=C/C=C(/C=C/C2=[N+](C)c3ccccc3C2(C)C)c2ccc(C(=O)*)cn2)C(C)(C)c2ccccc21

Key:
Aspergillus species = conditions: cited from earlier work
Fusarium species = conditions: clinical isolates (Arikan et al., 2001); cited from earlier work
Aspergillus fumigatus [1] = format: cell-based; conditions: Conidia (10% Vogel's), 37° C., 24 h
Procedure: The assays were performed using Nunc 262162 U96 polystyrene round bottomed clear plates (www.nuncbrand.com).
(§1) When testing the peptides against A. fumigatus, peptides at different concentrations were mixed with A. fumigatus conidia to reach a final volume of 100 μL per well. The final conidial concentration was 5×10^5 cells/mL in 10% Vogel's medium. After 24 h of incubation at 37° C. in 96 well plates, fungal growth with the different peptide concentrations was determined by measurement of the optical density at 610 nm in a TriStar LB 941 Multimode Microplate Reader. The IC50 values were determined using four parameter logistic regression formula provided by Sigma Plot 10.0. Values are represented as means±SEM from two independent experiments (n=3).
(§2) The IC50 of the fluorescently labelled peptides cannot be accurately determined using the optical density method described in the last section. This is because the fluorophore structures absorbed light at 610 nm which was the wavelength used for the optical density measurements. In order to overcome this, the BacTiter-Glo™ Microbial Cell Viability Assay kit purchased from Promega was used. The BacTiter-Glo™ Reagent relies on the properties of a proprietary thermostable luciferase (Ultra-Glo™ Recombinant Luciferase) and a proprietary formulation for extracting ATP from fungal cells which will generates a ‘glow-type’ luminescent signal. This is produced by the luciferase reaction shown in Scheme 1, which has a signal half-life of over 30 min depending on the experimental conditions. The luminescent signal is proportional to the amount of ATP present, which is directly proportional to the number of living cells in culture.
(§3) The IC50 assays for all fluorescently labelled peptides were performed using Greiner CELLSTAR white polystyrene wells flat bottomed 96 well plates. The incubation conditions remained the same for the optical density measurement described in the previous section. Once the incubation procedure was finished, the plate was equilibrated to room temperature. A mixture of BacTiter-Glo™ buffer and substrate was then added to the plate (100 μL per well). The plate was shaken for 5 min and read using the Tristar […] luminometer. Data analysis was performed using Sigma Plot 10.0. All values shown are presented as means±SEM from two independent experiments (n=3).

A. fumigatus [2] = assay: Live cell imaging in pig corneal infection model; design: species or system Aspergillus fumigatus; dose or concentration left out as unconfirmed; conditions: 15 min incubation at 37° C.
Procedure: MFIGAF001a in a pig corneal infection model was investigated (FIG. 12).
Porcine corneal was infected with A. fumigatus using the same method described above (Biological Example 8). After confirming the success of infection, 1 drop of MFIGAF001 solution in water (2.5 μM) was added topically to the corneal surface and incubated for 15 min at 37° C. before confocal microscopy.

rabbit eye = assay: Tolerability study on rabbit eyes in vivo; conditions: 10 µM, 50 µL into the right eye, three rabbits, observed 7 days
Procedure: Three rabbits (rabbits 1, 2 and 3) were tested. All rabbits appeared unaffected immediately post-treatment and through the next 7 days with no signs of irritation and no change in general condition. MFIGAF001a was used at 10 µM and 50 µL and was admitted into the right eye of the rabbits.

A. fumigatus [3] = assay: Live cell imaging of A. fumigatus in co-cultures with A549; format: cell-based, Aspergillus fumigatus; conditions: 2.5 µM, 10 min after addition, 37° C. in RPMI
Fusarium oxysporum = format: cell-based; conditions: Conidia (10% Vogel's), 35° C., 24 h
Procedure: Dose dependent inhibition of fungal growth by all non-labelled peptides (indicated by IC50 values) was determined via this methodology. The assays were performed using Nunc 262162 U96 polystyrene round bottomed clear plates (www.nuncbrand.com).
as §1
When testing the peptides against N. crassa and F. oxysporum, experiments were carried as described above apart from the incubation temperature was changed to 25° C. for N. crassa and 35° C. for F. oxysporum.
as §2, §3

[4] = system: A. fumigatus and S. aureus; assay: Live cell imaging in pig corneal infection model co-infected by A. fumigatus and S. aureus; conditions: 2.5 μM, 15 min incubation at 37° C., co-infected 48 h
Source text: The labelled compound can be used to distinguish fungus from S. aureus when using confocal microscopy based on assessing the morphology of the areas of fluorescence. The fungal hyphea can be observed and identified based on its characteristic filamentous shape, and its much larger size compared to the bacteria which appears to be much smaller and having a dotted shape.

S. aureus = assay: Live cell imaging with S. aureus; format: cell-based, Staphylococcus aureus; conditions: 2.5 µM, 20 min incubation at 37° C. in RPMI
Source text: MFIGAF001a labels gram positive bacteria Staphylococcus aureus. (FIG. 14).

[5] = system: C. albicans, F. oxysporum, A. fumigatus, and C. neoformans; assay: Live cell imaging, fluorescent labelling of pathogenic fungi; format: cell-based; design: dose or concentration left out as unconfirmed; conditions: 15 min incubation at 37° C. in RPMI
Procedure: The N. crassa mat A WT used for confocal live-cell imaging was grown on 100% Vogel's agar medium at 25° C. for 3-5 days before the spores were harvested. The A. fumigatus CEA10 strain used for confocal live-cell imaging was grown on 100% Vogel's medium at 37° C. for 4-5 days before the spores were harvested. Before the confocal experiments were performed, N. crassa spores were incubated in eight-well slide culture chambers for 3 h at 25° C. in liquid 10% Vogel's medium and A. fumigatus spores were incubated for 16 h at 25° C. in liquid 10% Vogel's medium in order to allow germination to fully take place for imaging.
Live-cell imaging of germinated fungi spores was performed using a Leica TCS SP8 confocal laser scanning microscope equipped with photo multiplier tubes (PMT), hybrid GaAsP (HyD) detectors and a 63× water immersion objective. A Leica turntable white light laser (WLL, 450-750 nm), argon laser (458 nm, 476 nm, 488 nm and 496 nm) and UV laser (405 nm) were used for fluorescence excitation.
The major pathogenic fungi include C. albicans, F. oxysporum, A. fumigatus, and C. neoformans.

[6] = system: Human Red Blood Cells (HRBCs); assay: Haemolytic activity in human red blood cells; conditions: 10 μM, 37° C., 1 h
Procedure: Molecules, DMSO (as positive control) and PBS (as negative control) were incubated with human RBCs at 37° C. and their viability was assessed after 1 h.
Erythrocytes were isolated from freshly drawn, anticoagulated human blood and diluted in PBS (1:5). An amount of 50 μl of erythrocyte suspension was added to 50 μl of compounds at 10 µM. DMSO was used as positive control and PBS as negative control. The plate was incubated at 37° C. for 1 h, each well was diluted with 150 μl of PBS and the plate was centrifuged at 1,200 g for 15 min. A total of 100 μl of the supernatant from each well was transferred to a fresh plate, and the absorbance at 350 nm was measured in a microplate reader. Data is represented as % of cell viability as means from three independent experiments with n=3.

[7] = Viability of reconstructed cornea-like epithelium (eye irritation model); format: cell-based; conditions: human, reconstructed cornea-like epithelium (RhCE, EpiOcular™); 10 μM; read-out: Mean of Viabilities (%)
Procedure: (§4) FIG. 4a is a graph of the viability reconstructed cornea-like epithelium (RhCE, EpiOcular™) after incubation with MFIGA001. NC=Negative Control; PC=Positive Control. FIG. 4b is a graph of the viability reconstructed cornea-like epithelium (RhCE, EpiOcular™) after incubation with 10 µM of MFIGA001a and MFIGAF001b. NC=Negative Control; PC=Positive Control; A2=MFIGAF001a; and B1=MFIGAF001b.
(§5) MFIGAF001 was also assessed independently by a CRO (Evotec) in an OECD compliant reconstructed cornea-like epithelial cell model (RhCE, EpiOcular™).

[8] = system: reconstructed cornea-like epithelium (RhCE, EpiOcular™); assay: as above; format: cell-based; conditions: RhCE, EpiOcular™
Procedure: as §4, §5

P. aeruginosa = assay: Live cell imaging with P. aeruginosa; format: cell-based; conditions: 2.5 μM, 37° C. in RPMI, 1 h
Aspergillus fumigatus [9] = format: cell-based; conditions: Conidia (RPMI), 37° C., 24 h

SMILES: CC[C@H](C)C[C@H](C)CCCCCCCCC(=O)N[C@H]1C[C@@H](O)[C@@H](NCCN)NC(=O)[C@@H]2[C@@H](O)CCN2C(=O)[C@H]([C@H](O)CCN)NC(=O)[C@H]([C@H](O)[C@@H](O)c2ccc(O)cc2)NC(=O)[C@@H]2C[C@@H](O)CN2C(=O)[C@H]([C@@H](C)O)NC1=O [Caspofungin]
- MICs against Aspergillus clinical isolates (Aspergillus species): moderate MICs
- Activity against Fusarium species (MIC testing) (Fusarium species): not particularly active

SMILES: CN1/C(=C/C=C(/C=C/C2=[N+](C)c3ccccc3C2(C)C)c2ccc(C(=O)NCCCC[C@@H]3NC(=O)[C@H](Cc4c[nH]c5ccccc45)NC(=O)[C@H](Cc4ccccc4)NC(=O)[C@H](Cc4c[nH]c5ccccc45)NC(=O)[C@@H](Cc4ccccc4)NC(=O)[C@H](CCCCN)NC(=O)[C@H](CCCCN)NC(=O)[C@H](CCCNC(=N)N)NC(=O)CNC3=O)cn2)C(C)(C)c2ccccc21 [MFIGAF001a, Cyclo(Arg-Lys-Lys-phe-Trp-Phe-Trp-Lys(Cy5)-Gly)] (cyclo(FWK(X1)GRKK[dF]W))
- IC50 Aspergillus fumigatus (Aspergillus fumigatus [1]): 1.3 µg/mL
- Selective labelling of A. fumigatus over porcine corneal tissue (A. fumigatus [2]): selectively labelled A. fumigatus
- Tolerability / eye irritation in rabbit eye (rabbit eye): no eye irritation; also recorded: well tolerated
- Selective labelling of A. fumigatus over A549 (A. fumigatus [3]): selectively labels A. fumigatus over A549 cell
- IC50 Fusarium oxysporum (Fusarium oxysporum): 1.5 µg/mL
- Differentiation of fungus from S. aureus by morphology of fluorescence [4]: can be used to differentiate fungal keratitis and gram positive bacterial keratitis
- Labelling of gram positive bacteria Staphylococcus aureus (S. aureus): labels
- Fluorescent labelling of pathogenic fungi [5]: label all major pathogenic fungi that cause fungal keratitis; also recorded: rapid and highly fluorogenic labelling
- Haemolytic activity against HRBCs [6]: no haemolytic activity
- viability at 10 µM [7]: 98%
- Toxicity, reconstructed cornea-like epithelium (FIG. 4) [8]: no obvious toxicity
- Selectivity over gram negative bacteria Pseudomonas (labelling) (P. aeruginosa): great selectivity

SMILES: C[C@@H]1C/C=C/C=C/C=C/C=C/[C@H](O[C@@H]2O[C@H](C)[C@@H](O)[C@H](N)[C@@H]2O)C[C@@H]2O[C@](O)(C[C@@H](O)C[C@H]3O[C@@H]3/C=C/C(=O)O1)C[C@H](O)[C@H]2C(=O)O [Natamycin]
- IC99 Aspergillus fumigatus (Aspergillus fumigatus [9]): 39 mg/L
